The subject of test [1] is neonatal rat CMs (heart cells). As to the kind of experiment: Preliminary 3D cell encapsulation studies in hydrogels. The format is cell-based, rat (Sprague-Dawley). To be noted: encapsulated, 1 to 4 days of 3D culture. How it is done:
The lyophilized form of the peptide-modified Az-chitosan was dissolved in sterile 0.9% saline at 12 mg/mL. CMs (2.5×10^6) were suspended in 15 μL of CM culture media with 30% serum for 15 minutes on ice. These cells were then suspended in 35 μL of the hydrogel and crosslinked in the transwell inserts of the 96 well plates. The cells were cultivated in the CM culture medium with 10% FBS for up to 4 days.

The test system of test [2] is neonatal cardiomyocytes encapsulated in chitosan hydrogels. Briefly: Functional testing by electrical field stimulation (ET, MCR) of encapsulated cardiomyocytes. The format is cell-based, rat. An excerpt: The electrical function of in vitro samples of neonatal cardiomyocytes encapsulated in chitosan hydrogels for 6 d was established by measuring excitation threshold (ET), the minimum voltage required to pace the encapsulated cells simultaneously, and maximum capture rate (MCR) as previously described, (Radisic, Park et al. 2004), the contents of which are incorporated by reference. The MCR is the maximum stimulation rate at which the encapsulated cardiomyocytes can be induced to beat simultaneously, the encapsulated samples were placed between a pair of carbon electrodes immersed in warm Tyrode solution (Sigma, pH 7.4). The ET was measured by stimulating the samples with square pulses of 2 ms width at a frequency of 1 Hz and increasing the output voltage of the stimulator until ˜90% of the cells in the field-of-view were beating synchronously with the stimulator output. The MCR was measured by setting the output at 15 V, and increasing the frequency until most of the cells in the sample were no longer synchronously beating with the driving signal. All measurements were taken using bright field microscopy. The samples were placed in an environmental chamber at 37° C. for the measurements (N=3/group).

For test [3], the system named is human iPS cells. As to the kind of experiment: iPS cell colony number following passage. The format is cell-based. To be noted: vs PBS control, FIG. 11. How it is done: The human iPS cells (BJ1D and 0901B) were obtained from the Ontario iPSC Facility and used following the hiPS cell research guidelines of the University of Toronto as described by Hotta et al. Nat. Protoc. 4, 1828-1844 (2009)), unless specified otherwise. Cells were cultured on a feeder layer of MEF cells (Mount Sinai Hospital Toronto, inactivated with 10 μg/ml mitomycin C and seeded at 1.8×10^5 per 3.5 cm dish). For single cell cultures, hiPS cell colonies were dissociated in 0.25% Trypsin-EDTA (Invitrogen) for 5 min, followed by trituration with a pipette. To ensure a single-cell suspension, the dissociated cells were passed through a 40 μm cell strainer (BD Falcon) and seeded onto MEF plates at 10 cells/ml, 10 cm plates. Cells were allowed to grow for 7 days and the total number of colonies was counted. In the treated groups, QHREDGS (Biomatik) or DGQESHR (Biomatik) dissolved in PBS (Lonza), were added at the reported concentrations to culture media at the onset of the first treatment passage and replenished with each media change. Media was changed by 100% every day. Peptides and controls were included during dissociation and passaging. Cells were analyzed after 5 passages in continuous treatment with 50 μM QHREDGS, 50 μM DGQESHR, or PBS, unless specified otherwise.
To determine the optimal concentration of QHREDGS for iPSC expansion, a dose-response experiment was performed. Cells were treated with 5 μM, 50 μM, or 500 μM of QHREDGS peptide, or 500 μM scrambled peptide (DGQESHR) in PBS with a PBS treated control for five passages and stained for CFDA-Live/PI-Dead. Live cells were counted using the cell counter plug in for ImageJ.

The subject of test [4] is human iPS cells. As to the kind of experiment: EB differentiation of treated iPS cells. The format is cell-based. The following applies: after 5 passages of treatment, EB protocol. How it is done: Following 5 passages in continuous treatment, iPS cells were collected and differentiated into embryoid bodies (EB) containing cells of all three germ layers as described Itskovitz-Eldor, J. et al. Mol. Med. 6, 88-95 (2000). For further differentiation and analysis, EBs were plated onto 0.2% gelatin coated plates for another 10 days for attachment and fixed in 4% para-formaldehyde (Sigma) for immunohistochemistry.

Test [5] has as its system human iPS cells. Briefly: Teratoma formation after grafting into hind-limb muscles of NOD-SCID mice. The format is in vivo. To be noted: 10 passages in 50 μM, grafted into NOD-SCID mice.
Another test has as its system human iPS cells 0901B. Briefly: BrdU assay of iPS cell proliferation. The format is cell-based. To be noted: 50 μM, 5 passages, FIG. 17. As for the experimental part: (§1) After 5 passages in treatment, human iPS cells were passaged as described above in the presence of 50 μM QHREDGS, 50 μM DGQESHR (Biomatik), or PBS (Lonza) onto MEF plates and grown for 3 days. Cultures were pulsed for 1 hr with 10 μM BrdU (Sigma) and immediately analyzed for immunohistochemistry (see below). Ki67 (Millipore, 1:300) co-staining was used to differentiate MEFs from human iPS cells. All samples were counterstained with DAPI (300 nM, Sigma).

Another test has as its system human iPS cells BJ1D. As to the kind of experiment: BrdU assay of iPS cell proliferation. The format is cell-based. The following applies: 50 μM, 5 passages, FIG. 16. As for the experimental part:
as §1
On the technique in general: Dividing cells build labelled thymidine or BrdU into new DNA.

Where “and” joins values, the source holds several entries; their conditions need not be identical. Identical values can stand only once. No end group written: not given here.

With “Az-chitosan-QHREDGS: QHREDGS peptide covalently conjugated to Az-chitosan by EDC chemistry (also: covalently conjugated to Az-chitosan by EDC chemistry, site not given here)”, the “heart cell survival and elongation in 3D hydrogel” value in test [1] is listed as “heart cell elongation”. Besides, in test [2] (after six days of cultivation), the “ET (excitation threshold)” value was 7.0 ± 0.4; V and 9.2 ± 0.6 V; the “MCR (maximum capture rate)” value was determined as 4.3 ± 0.1 pps. Further, the “cardiomyocyte contraction under electrical field stimulation” value in test [2] (end of cultivation period) is “beat synchronously”.
Consider QHREDGS (angiopoietin 1 peptide), for which the “increase in colony number” value in the test with human iPS cells [3] (50 μM) is 14.3%; in the test on human iPS cells [3] (50 μM, on average), “greater than 10 colonies/well”; in the test on human iPS cells [3] (500 μM), 40%. Besides, the “differentiation into neural, mesodermal and endodermal cells” value in the test with human iPS cells [4] is recorded as “retained the competence to differentiate”. Also, the teratoma formation entry with human iPS cells [5] is given as “continued to form teratomas”. In addition, the “rate of proliferation (BrdU incorporation, 1 hr pulse)” value in the test with human iPS cells 0901B and with human iPS cells BJ1D was “remained the same” throughout.
